Test results reported in EP1121940A1, “Pharmaceutical compositions comprising an antibiotic and bromhexine, and process for their preparation” (New Pharma Research Sweden AB, priority 2000, dated 2001).

Legend:
[1] = solutions of pH greater than six; cited from earlier work
[2] = system: pneumonia infection; test: Efficacy in the treatment of calves suffering from a pneumonia infection; format: in vivo; settings: intramuscular injection once a day for four consecutive days, results after 5 days
Excerpt: (§1) The aim of this study was to evaluate the effect of a treatment with a composition in accordance with the present invention on the mortality and clinical signs of calves suffering from a pneumonia infection, and to compare the efficacy of this treatment with the efficacy of a treatment with a composition containing only the antibiotic.
20 calves aged 1 to 4 months were used for the experiment. The animals were suffering from a pneumonia infection, characterized by severe respiratory disorders including coughing, rale and increased body temperature (measured between +39.5°C and +41°C).
(§2) The calves were divided into 2 equal groups of 10 animals each. The first group was treated with a composition containing only enrofloxacin. The second group was treated with the composition of Example 1 of the present invention, i.e. containing both enrofloxacin and bromhexine-HCl. Thus, 1 ml of composition contained either 200 mg of enrofloxacin (composition for the treatment of the first group) or 200 mg of enrofloxacin and 10 mg of bromhexine-HCl (composition for the treatment of the second group).
For both groups, the treatment was made by intramuscular injection, once a day and for four consecutive days, at a dose of 1 ml of active composition per 80 kg of animal body weight.
To assess the efficacy of the treatment, the mortality and body temperature of the animals were recorded for each group over a period of ten days following the treatment.

[3] = system: Escherichia coli; test: Efficacy in the treatment of Escherichia coli infected chickens; format: in vivo, broiler chickens; settings: oral via drinking water, three consecutive days, recorded over ten days following treatment
Excerpt: as §1, with “chickens naturally infected by Escherichia coli,” for “calves suffering from a pneumonia infection,”
10 000 broiler chickens aged 1 day were used for the experiment. The birds were infected by natural infection by Escherichia coli.
as §2, with “birds” for “calves”, “were then” for “were”, “5 000 birds” for “10 animals”, “invention,” for “invention, i.e.”
For both groups, the treatment was made orally, for three consecutive days, and using the drinking water, at a dose of 1 ml of active composition per 4 litres of drinking water.
To assess the efficacy of the treatment, the mortality and body weight of the animals were recorded for each group over a period of ten days following the treatment.

Row | SMILES | precipitation in solutions [1] | Mortality % ([2]; 1 ml per 80 kg body weight) [%] | Mortality dead animals ([2]; 1 ml per 80 kg body weight, 10 calves per group) | Body temperature [2] | Mortality % ([3]; 1 ml composition per 4 litres) [%] | Mortality dead birds ([3]; 1 ml composition per 4 litres, 5000 birds per group) | Weight g/bird [3] [g/bird]
1 | CN(Cc1cc(Br)cc(Br)c1N)C1CCCCC1.Cl [Bromhexine-HCl, N-(2-amino-3,5-dibromobenzyl)-N-methyl-cyclohexylamine hydrochloride] | precipitate | – | – | – | – | – | –
2 | CCN1CCN(c2cc3c(cc2F)c(=O)c(C(=O)O)cn3C2CC2)CC1 [Enrofloxacine, 1-cyclopropyl-7-(4-ethyl-1-piperazinyl)-6-fluoro-1,4-dihydro-4-oxo-3-quinoline carboxylic acid] | – | 10 | 1/10 | over 41.5 °C | 2.23 | 113/5000 | 1810
